Measured values: US20250041298A1, “CDK4 INHIBITOR FOR THE TREATMENT OF CANCER” (Pfizer Inc., priority 2021, published 2025)

Test system: AR+ prostate carcinoma cell line (LNCaP) prostate cancer spheroids
Test: Multicellular tumor spheroid growth inhibition (SGI), LNCaP
Format: cell-based, human
Procedure: The purpose of this example was to evaluate the combination effect of PF-07220060 and endocrine therapy in multicellular tumor spheroid growth inhibition (SGI). To model the characteristics and cellular behavior of human tumors, the activity of PF-07220060 was evaluated in three dimensional MCTS models of HR+ breast cancer and AR+ prostate cancer following PF-07220060 treatment as a single agent and in combination with fulvestrant • 1) in HR+, HER2-T47D breast cancer spheroids. • 2) in HR+, HER2+BT474 breast cancer spheroids, • 3) in BT474 spheroids, and • 4) in AR+ prostate carcinoma cell line (LNCaP) prostate cancer spheroids. Spheroids were treated with increasing concentrations of 100, 300, or 1000 nM PF-07220060 and compared to palbociclib at the clinically relevant concentration of 30 nM.

For `CC(C)n1c(C(C)(C)O)nc2c(F)cc(-c3nc(N[C@@H]4CCOC[C@H]4O)ncc3Cl)cc21` [PF-07220060, 1,5-anhydro-3-({5-chloro-4-[4-fluoro-2-(2-hydroxypropan-2-yl)-1-(propan-2-yl)-1H-benzimidazol-6-yl]pyrimidin-2-yl}amino)-2,3-dideoxy-D-threo-pentitol], the SGI (100 nM single agent) was 27%, the SGI (300 nM single agent) was 38; 38% and the SGI (1000 nM single agent) was 53%.
